In patent US10633372B2, “Process for the preparation of amorphous (1S)-1,5-anhydro-1-[3-[[5-(4 fluorophenyl)-2-thienyl]-4-methylphenyl]-D-glucitol and its polymorphs thereof” (MSN LABORATORIES PRIVATE LIMITED, priority 2015, dated 2020):

Assays:
[1] = as mentioned in WO2008/069327 A1; cited from earlier work
[2] = cited from earlier work
[3] = Particle size distribution; type: physicochemical

Compound	stability and handling of amorphous form [1]	physical change between the sorption/desorption cycle ([2]; DVS, two cycles, appearance changed as humidity increased from 70% to 90% RH)	hygroscopic nature confirmed by Dynamic vapor sorption (DVS) analysis ([2]; amorphous canagliflozin prepared per US'487 A1 (toluene solution into n-heptane))	Particle size distribution D(0.1) [3]	Particle size distribution D(0.5) [3]	Particle size distribution D(0.9) [3]
Cc1ccc([C@@H]2O[C@H](CO)[C@@H](O)[C@H](O)[C@H]2O)cc1Cc1ccc(-c2ccc(F)cc2)s1 [amorphous canagliflozin, (1S)-1,5-anhydro-1-[3-[[5-(4-fluorophenyl)-2-thienyl]methyl]-4-methylphenyl]-D-glucitol]	suffers from stability and handling issues such as poor filterability	conversion or partial conversion from the amorphous state to a crystalline state	hygroscopic	–	–	–
Cc1ccc([C@@H]2O[C@H](CO)[C@@H](O)[C@H](O)[C@H]2O)cc1Cc1ccc(-c2ccc(F)cc2)s1 [Example-4, (1S)-1,5-anhydro-1-[3-[[5-(4-fluorophenyl)-2-thienyl]methyl]-4-methylphenyl]-D-glucitol]	–	–	–	28.7 μm	61.4 μm	116.4 μm
Cc1ccc([C@@H]2O[C@H](CO)[C@@H](O)[C@H](O)[C@H]2O)cc1Cc1ccc(-c2ccc(F)cc2)s1 [Example-2, (1S)-1,5-anhydro-1-[3-[[5-(4-fluorophenyl)-2-thienyl]methyl]-4-methylphenyl]-D-glucitol]	–	–	–	3.29 μm	7.69 μm	14.5 μm
